US8563714B2, “Bridged spiro [2.4] heptane derivatives as ALX receptor and/or FPRL2 agonists” (Actelion Pharmaceuticals Ltd., priority 2009, dated 2013)

Columns and labels:
human FPRL2 = target: T1, human FPRL2 (Homo sapiens, UniProt P25089); assay: Intracellular calcium measurements (FLIPR), agonistic activity in HEK293-hFPRL2-Gα16 cells; assay type: cell-based; details: Fluo-4 calcium FLIPR, normalized to GLY14-Humanin 100 nM
T1 construct: expressed in transfected cells; host or cells: HEK293 (HEK293-hFPRL2-Gα16)
T1 sequence (P25089 1-353): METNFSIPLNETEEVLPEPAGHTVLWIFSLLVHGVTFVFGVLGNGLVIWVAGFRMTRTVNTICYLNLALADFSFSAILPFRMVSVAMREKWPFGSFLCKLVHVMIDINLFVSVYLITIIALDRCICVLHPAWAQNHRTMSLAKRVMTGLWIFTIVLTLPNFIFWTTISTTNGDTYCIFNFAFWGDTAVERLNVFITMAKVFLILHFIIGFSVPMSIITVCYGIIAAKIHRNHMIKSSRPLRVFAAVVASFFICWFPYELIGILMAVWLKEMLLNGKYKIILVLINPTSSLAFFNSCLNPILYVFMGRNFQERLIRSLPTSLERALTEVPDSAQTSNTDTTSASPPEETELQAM
Outline: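 Peak values after baseline subtraction are expressed relative to 100 nM Gly14-Humanin; compounds diluted in assay buffer from 10 mM DMSO stocks.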

human ALX receptor = target: T2, human ALX receptor (Homo sapiens, UniProt P25090); assay: Intracellular calcium measurements (FLIPR), agonistic activity in HEK293-hALXR-Gα16 cells; assay type: cell-based; details: Fluo-4 calcium FLIPR, normalized to WKYMVm 10 nM
T2 construct: expressed in transfected cells; host or cells: HEK293 (HEK293-hALXR-Gα16)
T2 sequence (P25090 1-351): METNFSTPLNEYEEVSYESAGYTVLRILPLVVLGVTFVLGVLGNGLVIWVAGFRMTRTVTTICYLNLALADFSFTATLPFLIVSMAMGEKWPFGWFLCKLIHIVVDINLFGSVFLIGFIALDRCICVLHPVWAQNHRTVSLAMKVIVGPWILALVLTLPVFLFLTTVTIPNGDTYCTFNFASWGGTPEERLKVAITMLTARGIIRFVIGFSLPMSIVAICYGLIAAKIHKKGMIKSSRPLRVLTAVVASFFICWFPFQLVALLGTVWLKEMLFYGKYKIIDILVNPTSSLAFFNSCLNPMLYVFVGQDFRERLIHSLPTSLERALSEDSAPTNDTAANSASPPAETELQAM
Outline: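 HEK293 cells expressing hALXR and Gα16 were loaded with 1 μM Fluo-4 AM and 20 mM HEPES for 60 min at 37°C, then exposed to serially diluted compound. FLIPR fluorescence was read at ex 488/em 540 nm. Baseline-subtracted peak responses were normalized to 10 nM WKYMVm.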

Structure (SMILES)	EC50 (human FPRL2) [nM]	EC50 (human ALX receptor) [nM]
O=C(N[C@H]1CC[C@H](O)CC1)[C@H]1[C@H](C(=O)Nc2ncc(Br)s2)[C@@H]2CC[C@H]1C21CC1 [Example 408, (5R)—N^5-(5-Bromothiazol-2-yl)-(6R)—N^6-(4-hydroxy-cyclohexyl)-(4S,7R)-[4,7-ethylene-spiro[2.4]heptane]-5,6-dicarboxamide]	16300	69
O=C(NCC1(O)CCCCC1)[C@H]1[C@H](C(=O)Nc2ncc(Br)s2)[C@@H]2CC[C@H]1C21CC1 [Example 409, (5R)—N^5-(5-Bromothiazol-2-yl)-(6R)—N^6-[(1-hydroxy-cyclohexyl)methyl]-(4S,7R)-[4,7-ethylene-spiro[2.4]heptane]-5,6-dicarboxamide]	9190	129
O=C(Nc1ncc(Br)s1)C1C(C(=O)NC2CCNC2)C2CCC1C21CC1 [Example 412, (5R)—N^5-(5-Bromothiazol-2-yl)-(6R)—N^6-(pyrrolidin-3-yl)-(4S,7R)-[4,7-ethylene-spiro[2.4]heptane]-5,6-dicarboxamide]	1020	8.9
CNCCNC(=O)[C@H]1[C@H](C(=O)Nc2ncc(Br)s2)[C@@H]2CC[C@H]1C21CC1 [Example 413, (5R)—N^5-(5-Bromothiazol-2-yl)-(6R)—N^6-(2-(N-methylamino)-ethyl)-(4S,7R)-[4,7-ethylene-spiro[2.4]heptane]-5,6-dicarboxamide]	2110	13
CNCCCNC(=O)[C@H]1[C@H](C(=O)Nc2ncc(Br)s2)[C@@H]2CC[C@H]1C21CC1 [Example 414, (5R)—N^5-(5-Bromothiazol-2-yl)-(6R)—N^6-(3-(N-methylamino)-propyl)-(4S,7R)-[4,7-ethylene-spiro[2.4]heptane]-5,6-dicarboxamide]	773	14
O=C(NC1CCCNC1)[C@H]1[C@H](C(=O)Nc2ncc(Br)s2)[C@@H]2CC[C@H]1C21CC1 (stereo partly drawn) [Example 415, (5R)—N^5-(5-Bromothiazol-2-yl)-(6R)—N^6-(piperidin-3-yl)-(4S,7R)-[4,7-ethylene-spiro[2.4]heptane]-5,6-dicarboxamide]	354	9.1
O=C(NCC1CCCN1)[C@H]1[C@H](C(=O)Nc2ncc(Br)s2)[C@@H]2CC[C@H]1C21CC1 (stereo partly drawn) [Example 416, (5R)—N^5-(5-Bromothiazol-2-yl)-(6R)—N^6-[(pyrrolidin-2-yl)-methyl]-(4S,7R)-[4,7-ethylene-spiro[2.4]heptane]-5,6-dicarboxamide]	479	8.3
O=C(NCC1CCCCN1)[C@H]1[C@H](C(=O)Nc2ncc(Br)s2)[C@@H]2CC[C@H]1C21CC1 (stereo partly drawn) [Example 417, (5R)—N^5-(5-Bromothiazol-2-yl)-(6R)—N^6-[(piperidin-2-yl)-methyl]-(4S,7R)-[4,7-ethylene-spiro[2.4]heptane]-5,6-dicarboxamide]	262	2.1
O=C(NCC1CCCNC1)[C@H]1[C@H](C(=O)Nc2ncc(Br)s2)[C@@H]2CC[C@H]1C21CC1 (stereo partly drawn) [Example 418, (5R)—N^5-(5-Bromothiazol-2-yl)-(6R)—N^6-[(piperidin-3-yl)-methyl]-(4S,7R)-[4,7-ethylene-spiro[2.4]heptane]-5,6-dicarboxamide]	339	0.45
O=C(NC1CNC1)[C@H]1[C@H](C(=O)Nc2ncc(Br)s2)[C@@H]2CC[C@H]1C21CC1 [Example 419, (5R)—N^5-(5-Bromothiazol-2-yl)-(6R)—N^6-(azetidin-3-yl)-(4S,7R)-[4,7-ethylene-spiro[2.4]heptane]-5,6-dicarboxamide]	2290	57
